Marks after values point to notes of the source that are not given here. Each block holds one compound with its values, some of them ahead of it.
What was measured:
[1] = pH titration of sensor (absorbance and fluorescence monitored), pKa; assay type: physicochemical; details: buffered solution of the sensor; unbound sensor; pH and fluorescence intensity data fit to a pH isotherm
Procedure: (§1) The spectroscopic properties of several exemplary inventive sensors have been examined, along with the starting compound 1, as 7-hydroxycoumarins are well known for their pH-sensitivity. First, the acidity of the sensors was discerned by performing pH titrations where aliquots of aqueous HCl were added to a buffered solution of the sensor and the absorbance and fluorescence were monitored. The pKa of the pH-sensitive unit is related to the donating ability of the sulfonamide substituent. ES517 has a dimethylamino-substituent on the sulfonamide which is the best electron-donor into the sulfonyl motif. This makes deprotonation of the N—H proton located at the 7-position of the coumarin core the least favorable and therefore the least acidic. The pH and fluorescence intensity data were fit to a pH isotherm and the pKa was determined to be 6.3. As the donating ability of the sulfonamide substituent into the sulfonyl motif worsened, the acidity of the N—H proton located at the 7-position of the coumarin core increased. The aromatic substituents are the least electron donating substituents into the sulfonyl motif which explains the greater acidity. By using a single coupling reaction, the pKa of the sensor may be tuned to fit the parameters of the experiment.

[2] = Spectroscopic properties of unbound sensors; assay type: physicochemical; parameters: λmax (GH) / λmax (G-): unit not given here; details: for λem (ex: 488 nm): excitation 488 nm; for λmax (G-) / λmax (GH): unbound sensor; for λmax (G-): deprotonated form G-; for λmax (GH): protonated form GH
Procedure: as §1
(§2) Table 1 summarizes the spectroscopic properties of the tested compounds in pH varying environments, mimicking the vesicular and synaptic cleft conditions.

[3] = Fluorescence at pH 7.4 vs 5.0 of sensor saturated with glutamate
Procedure: Next, the sensor was saturated with 300 mM glutamate in order to mimic vesicular conditions. The fluorescence intensity of the bound complex was then monitored between the pH values of 5 and 7.4, the acidities associated with the synaptic vesicle and synaptic cleft, respectively. An excitation wavelength of 488 nm was used because it is far enough to the red to ensure that only the bound, deprotonated sensor was excited. It is also a common wavelength used in fluorescence microscopy cell studies. The fluorescence intensity increased for all sensors upon basification from pH 5 to 7.4, however the sensors with the highest pKa values gave the greatest enhancements.
as §2

[4] = Fluorescence at pH 7.4 vs 5.0 of ES517 saturated with GABA; details: ES517 20 μM saturated with 300 mM GABA
Text: (§3) The ES517 was further analyzed for binding and spectroscopic properties with the common neurotransmitters other than glutamate released upon exocytosis. […] The aromatic neurotransmitters dampened the fluorescence turn-on response of the inventive sensors due to the electron-rich nature of catecholamines (norepinephrine and dopamine) and indoleamines (serotonin).

[5] = Fluorescence at pH 7.4 vs 5.0 of ES517 saturated with glycine; details: ES517 20 μM saturated with 300 mM glycine
Text: as §3

[6] = Fluorescence at pH 7.4 vs 5.0 of ES517 saturated with norepinephrine; details: ES517 20 μM saturated with 100 mM norepinephrine
Text: as §3

[7] = Fluorescence at pH 7.4 vs 5.0 of ES517 saturated with dopamine; details: ES517 20 μM saturated with 100 mM dopamine
Text: as §3

[8] = Binding study (fluorescence titration) of ES517 with glutamate
Procedure: While low, this binding constant is believed to be preferred for reversible binding due to the high millimolar concentration of glutamate in a vesicle (˜300 mM).

[9] = Binding study (fluorescence titration) of ES517 with GABA
[10] = Binding study (fluorescence titration) of ES517 with glycine
[11] = Binding study (fluorescence titration) of ES517 with norepinephrine
[12] = Binding study (fluorescence titration) of ES517 with dopamine
[13] = Binding study (fluorescence titration) of ES517 with serotonin
[14] = pKa and absorbance of the bound sensor (ES517 saturated with glutamate) over a wide pH range; assay type: physicochemical
Text: ES517 was saturated with glutamate and the spectroscopic properties measured over a wide pH range. The protonated form of the bound sensor (FIG. 4, structure B) absorbed at 368 nm. […] The 428 nm band was assigned to the unbound deprotonated form of the sensor (structure C). The 458 nm band therefore represents the bound, deprotonated sensor (structure D). The plot of pH vs. intensity was fit to a pH isotherm and the pKa determined to be 6.3.

[15] = sensor saturated with 0.3M glutamate, intensities monitored at pH 5.0 and 7.4
[16] = ES517 20 μM, buffered, pH 7.4, ±10% error
[17] = fluorescence enhancement upon binding at pH 7.4, λem = 517 nm

pKa [1]: 5.9
λem (ex: 488 nm) [2]: 489 nm
λmax (G-) [2]: 420
λmax (GH) [2]: 365
SMILES: CS(=O)(=O)Nc1ccc2c(-c3ccccc3)c(C=O)c(=O)oc2c1
IpH 7.4/IpH 5 [3, 15]: 5.5

pKa [1]: 5.2
λem (ex: 488 nm) [2]: 494 nm
λmax (G-) [2]: 416
λmax (GH) [2]: 366
SMILES: O=Cc1c(-c2ccccc2)c2ccc(NS(=O)(=O)c3cccs3)cc2oc1=O
IpH 7.4/IpH 5 [3, 15]: 2.5

pKa [1]: 5.8
λem (ex: 488 nm) [2]: 468 nm
λmax (G-) [2]: 420
λmax (GH) [2]: 368
SMILES: O=Cc1c(-c2ccccc2)c2ccc(O)cc2oc1=O
IpH 7.4/IpH 5 [3, 15]: 3.3

pKa [1]: 6.3
λem (ex: 488 nm) [2]: 498 nm
λmax (G-) [2]: 419
λmax (GH) [2]: 368
Ka ([8]; glutamate, ES517 20 μM, 50 mM bis-tris propane, 50 mM Na2S2O3, 1% DMSO, pH 7.4, ±10% error): 8.6 M⁻¹
Isat/I0 ([8]; glutamate, fluorescence enhancement upon binding at pH 7.4, Isat from theoretical max of binding isotherm, λem = 517 nm): 12
fluorescence enhancement upon binding to glutamate ([8]; titration with glutamate, excitation 488 nm): 12 fold
Ka [9, 16]: 8.3 M⁻¹
Isat/I0 [9, 17]: 27
Ka [10, 16]: 9.2 M⁻¹
Isat/I0 [10, 17]: 25
Ka [11, 16]: 49 M⁻¹
Isat/I0 [11, 17]: 14
Ka [12, 16]: 55 M⁻¹
Isat/I0 [12, 17]: 10
Ka [13, 16]: 54 M⁻¹
Isat/I0 [13, 17]: 0.5
absorbance of protonated form of the bound sensor (structure B) [14]: 368 nm
absorbance band of bound, deprotonated sensor (structure D) ([14]; upon deprotonation): 458 nm
absorbance band of unbound deprotonated form of the sensor (structure C) ([14]; upon deprotonation): 428 nm
SMILES: CN(C)S(=O)(=O)Nc1ccc2c(-c3ccccc3)c(C=O)c(=O)oc2c1 [ES517]
IpH 7.4/IpH 5 ([3]; ES517 20 μM saturated with 300 mM glutamate, fluorescence at pH 7.4 vs. 5.0): 12^d
IpH 7.4/IpH 5 [3, 15]: 12
IpH 7.4/IpH 5 [4]: 11 ^d
IpH 7.4/IpH 5 [5]: 10 ^d
IpH 7.4/IpH 5 [6]: 5.3 ^e
IpH 7.4/IpH 5 [7]: 5.5 ^e

Reference: patent publication US9862697B2, “pH-sensitive fluorescent sensors for biological amines” (The Curators of the University of Missouri, priority 2013, dated 2018)
